Entries after “also recorded” stand apart in the source; their conditions may differ. Like-named read-outs stand apart in the source and are kept apart here.
Assays:
[1] = molecular target: T1, soybean 15-lipoxygenase (SLO; L1; Type I-B; EC 1,13,11,12) (Glycine max, UniProt P08170); test: SLO enzyme inhibition, peroxide-formation method (substrate linoleic acid); format: biochemical
T1 construct: purchased Sigma Co
T1 sequence (P08170 1-839): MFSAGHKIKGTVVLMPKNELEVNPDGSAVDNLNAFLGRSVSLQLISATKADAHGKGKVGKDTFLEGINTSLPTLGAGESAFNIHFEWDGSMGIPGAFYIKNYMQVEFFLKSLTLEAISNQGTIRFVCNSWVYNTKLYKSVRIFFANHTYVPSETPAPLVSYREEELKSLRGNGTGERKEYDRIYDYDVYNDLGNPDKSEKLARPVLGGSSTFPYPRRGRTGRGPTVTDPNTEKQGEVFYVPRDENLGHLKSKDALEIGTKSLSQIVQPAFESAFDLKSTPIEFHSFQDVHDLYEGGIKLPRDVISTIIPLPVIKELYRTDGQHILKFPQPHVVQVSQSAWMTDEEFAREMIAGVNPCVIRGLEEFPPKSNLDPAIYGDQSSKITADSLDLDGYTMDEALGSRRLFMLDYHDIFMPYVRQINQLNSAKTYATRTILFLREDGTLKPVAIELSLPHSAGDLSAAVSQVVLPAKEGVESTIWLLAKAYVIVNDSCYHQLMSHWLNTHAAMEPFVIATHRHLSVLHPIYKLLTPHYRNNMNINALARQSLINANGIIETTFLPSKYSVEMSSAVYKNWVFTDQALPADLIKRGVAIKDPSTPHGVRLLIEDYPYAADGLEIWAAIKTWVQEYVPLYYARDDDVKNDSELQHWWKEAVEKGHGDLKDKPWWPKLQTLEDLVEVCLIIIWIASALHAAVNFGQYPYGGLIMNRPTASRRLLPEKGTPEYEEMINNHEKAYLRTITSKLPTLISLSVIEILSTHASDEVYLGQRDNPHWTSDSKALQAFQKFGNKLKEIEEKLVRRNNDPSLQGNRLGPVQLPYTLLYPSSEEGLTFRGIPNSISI
Method: LA, enzyme and two assay solutions (A and B) were firstly prepared as follow:
LA solution: A mixture of LA (5.6 mg), ethanol (0.5 ml) and KOH (100 mM) to a final volume of 5 ml (6).
The enzyme solution was prepared by dissolving 1 mg lyophilized SLO (L1; Type I-B; EC 1, 13, 11, 12; Sigma Co.) in 5 ml phosphate buffer (50 mM, pH 7.0) and then its activity was checked by diene formation method at 234 nm. Finally, its activity was decreased to desired quantity by dilution with the phosphate buffer.
Solution A: DMAB (3-dimethylaminobenzoic acid) 50 mM in phosphate buffer (100 mM, pH 7.0).
Solution B: A mixture of MBTH (3-methyl-2-benzothiazolonhydrazone) (10 mM, 3 ml) and hemoglobin (5 mg/ml, 3 ml) in 25 ml phosphate buffer (50 mM, pH 5.0).
Assay procedure: the sample solution in dimethyl sulfoxide (25 µl), enzyme solution (4000 units/ml; 25 µl), and phosphate buffer (pH 7.0, 50 mM; 900 µl) were mixed in a test plate and pre-incubated for 5 min at room temperature. Control test was done using the same volume of dimethyl sulfoxide. After pre-incubation, LA solution (50 µl) was added (starting of the peroxidation reaction) and 10 min later, solution A (270 µl) and subsequently solution B (130 µl) were added to start the color formation. 3 min later, 200 µl of sodium dodecyl sulfate solution (2% W/V) was added to terminate the reaction. The absorbance was recorded at 598 nm. Each experiment was performed in triplicate. The data analysis was done in GraphPad Prism 6.0 ([6]).
Lipoxygenase inhibitory activity of the synthetic compounds (substrate: linoleic acid) was assessed by using the peroxide-formation method, according to the published literature ([14], [15]). In this method, measurement of linoleate hydroperoxide concentration is the basis of lipoxygenase activity determination. All the assessments were performed in comparison with 4-MMPB (4-methyl-2-(4-methylpiperazinyl)pyrimido[4,5-b]benzothiazine) as a well-known lipoxygenase inhibitor.

[2] = molecular target: T2, soybean 15-lipoxygenase (SLO) (Glycine max, UniProt P08170); test: Inhibitory mechanism of SLO inhibition (Michaelis-Menten / Lineweaver-Burk); format: biochemical; settings: Tris buffer pH 7.2; LA 6.25-100 µM; inhibitor 125, 100 and 75 µM; Lineweaver-Burk plot
T2 construct: purchased Sigma Co
T2 sequence (P08170 1-839): T1 sequence (P08170 1-839)
Method: The experiment was done in Tris buffer (pH 7.2, 50 mM). Five concentrations of LA (6.25, 12.5, 25, 50 and 100 µM) were used. The enzyme activity was measured in the absence (control test) and presence of 6f as inhibitor (concentrations 125, 100, and 75 µM).
25 µl of the enzyme solution (4000 unit/ml) was added to mixture of buffer (900 µl) and inhibitor (25 µl) and incubated for 10 min at room temperature. Subsequently, 50 µl of LA solution was added to the mixture to start the reaction. After 10 min, solution A (270 µl) and then solution B (130 µl) were added to start color formation (preparation of solution A and B described in the previous section). 3 min later, 200 µl of a 2% SDS solution was added to terminate the reaction. The absorbance was recorded at 598 nm compared with the control. These experiments were performed in triplicate. Using the reaction rates (Abs.min^-1), both inhibitor and LA concentrations (µM), Michaelis-Menten and Lineweaver-Burk plots were graphed in GraphPad Prism 6.0.
So molecular docking by AutoDockTools could be responsible for finding the probable binding conformation of the inhibitors in active site pocket of SLO.

[3] = molecular target: T1, soybean 15-lipoxygenase (SLO; L1; Type I-B; EC 1,13,11,12); settings: cited from earlier work
[4] = substrate linoleic acid, phosphate buffer pH 7.0, absorbance 598 nm, triplicate, read-out: IC50 (SLO inhibition)

Row | Compound | IC50 [1, 4] [µM] | melting point [°C] | further results
1 | C=CCc1cc(NC(=O)C2CC2)ccc1OC(C)C [Compound 6a, N-(3-allyl-4-isopropoxyphenyl) cyclopropane carboxamide] | 45.5 ± 8.1 | 78 to 79 | 
2 | C=CCc1cc(NC(=O)C2CCC2)ccc1OC(C)C [Compound 6b, N-(3-allyl-4-isopropoxyphenyl) cyclobutane carboxamide] | 25.2 ± 2.1 | 81 to 83 | 
3 | C=CCc1cc(NC(=O)C2CCCC2)ccc1OC(C)C [Compound 6c, N-(3-allyl-4-isopropoxyphenyl) cyclopentane carboxamide] | 9.27 ± 1.9 | 88 to 89 | 
4 | C=CCc1cc(NC(=O)C2CCCCC2)ccc1OC(C)C [Compound 6d, N-(3-allyl-4-isopropoxyphenyl) cyclohexane carboxamide] | 3.56 ± 0.21 | 93 to 95 | 
5 | C=CCc1cc(NC(=O)c2ccccc2)ccc1OC(C)C [Compound 6e, N-(3-allyl-4-isopropoxyphenyl) benzamide] | > 100 | 128 to 130 | SLO inhibition, result in words ([1]; substrate linoleic acid): no effect; also recorded: did not show any activity
6 | C=CCc1cc(NC(=O)C23CC4CC(CC(C4)C2)C3)ccc1OC(C)C [Compound 6f, N-(3-allyl-4-isopropoxyphenyl) adamantane carboxamide] |  |  | IC50 [1]: 1.35 ± 0.08 µM; Inhibitory mechanism on SLO [2]: competitive mechanism
7 | C=CCOc1ccc(NC(=O)C23CC4CC(CC(C4)C2)C3)cc1CC=C [Compound A1, N-(3-allyl-4-(allyloxy)phenyl) adamantanecarboxamide] |  |  | IC50 ([3]; previous work on N-(3-allyl-4-(allyloxy)phenyl) carboxamides, read-out: IC50 (lipoxygenase inhibition) of A1): 9.8 ± 1.2 µM
8 | C=CCc1cc(OC)ccc1OC(C)C [Compound A2, 2-allyl-1-isopropoxy-4-methoxybenzene] |  |  | IC50 ([3]; previous work on 2-alkoxy-5-methoxyallylbenzenes, read-out: IC50 (lipoxygenase inhibition) of A2): 5.9 ± 0.6 µM

From paper PMC7478253, “Design, synthesis, and SAR study of isopropoxy allylbenzene derivatives as 15-lipoxygenase inhibitors” (Iranian Journal of Basic Medical Sciences, 2020)
